Results: publication PMC9930429, “Wogonin attenuates the pathogenicity of Streptococcus pneumoniae by double‐target inhibition of Pneumolysin and Sortase A” (Journal of Cellular and Molecular Medicine, 2023)

Biological target: Pneumolysin (PLY) (Streptococcus pneumoniae, UniProt Q04IN8)
Experiment: biochemical

Chain of Pneumolysin (PLY) (Q04IN8 2-471 limits assumed): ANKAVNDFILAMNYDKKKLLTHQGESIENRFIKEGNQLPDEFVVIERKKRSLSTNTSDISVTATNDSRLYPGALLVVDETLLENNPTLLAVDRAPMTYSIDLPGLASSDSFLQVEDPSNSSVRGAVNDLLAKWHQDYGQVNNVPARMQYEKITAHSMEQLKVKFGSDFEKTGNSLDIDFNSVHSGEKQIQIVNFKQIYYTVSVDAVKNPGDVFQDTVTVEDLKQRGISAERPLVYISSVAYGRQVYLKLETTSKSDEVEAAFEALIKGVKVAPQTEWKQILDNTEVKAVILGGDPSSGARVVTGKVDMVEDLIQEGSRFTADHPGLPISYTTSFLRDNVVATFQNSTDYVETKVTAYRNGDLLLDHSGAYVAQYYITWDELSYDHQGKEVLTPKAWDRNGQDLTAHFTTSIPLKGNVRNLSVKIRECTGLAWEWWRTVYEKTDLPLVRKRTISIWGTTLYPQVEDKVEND

`COc1c(O)cc(O)c2c(=O)cc(-c3ccccc3)oc12` [wogonin] gave an IC50 of 186 µM.
